Our source for the IC50 and pIC50 values is ChEMBL document CHEMBL1152487, “3D-QSAR studies of HDACs inhibitors using pharmacophore-based alignment” (Eur J Med Chem, 2009).

The nature of this test: Inhibition of HDAC.

A word on the IC50: it is the midpoint of a concentration-inhibition curve. Usually pIC50 stands for the negative decadic logarithm of the IC50, by convention in mol/L. A low value points to a high IC50. On to `O=C(CCCCCN1C(=O)c2ccccc2C1=O)NO`, for which the IC50 came out at 103 nM and the pIC50 is reported as 6.99.

In turn, `Cc1ccc(S(=O)(=O)Nc2ccc(/C=C/C(=O)NO)cc2)cc1` registered a 50% inhibitory concentration (IC50) of 300 nM and a negative logarithm of the IC50 (pIC50) of 6.52. For `O=C(Cc1ccc(NS(=O)(=O)c2ccccc2)cc1)NO`, in that order: 1000 nM and 6.

In the case of `O=C(CCCCC/C=C/c1ccc2ccccc2c1)NO`, the pIC50 turned out to be 8.22. Take `CC(=O)c1cc(/C=C/C(=O)NO)n(C)c1`: the IC50 stood at 11200 nM and the pIC50 was determined as 4.95. For `Cn1cc(C=O)cc1CCC(=O)NO`, in that order: 52600 nM and 4.28. For `Cn1cc(C(=O)Cl)cc1/C=C/C(=O)NO`, in that order: 9650 nM and 5.01. For `Cn1cc(C=O)cc1/C=C/C(=O)NO`, in that order: 12200 nM and 4.92. As to `O=C(CCCCCCC(=O)c1ccc(C(F)(F)F)cc1)NO`, the pIC50 is listed as 7.35. For `COc1ccc(S(=O)(=O)Nc2ccc(/C=C/C(=O)NO)cc2)cc1`, half-maximal inhibition (IC50) was put at 60 nM and the pIC50 came to 7.22. `O=C(CCCCCCCc1ccc2ccccc2c1)NO` gave a pIC50 of 7.6. `O=C(/C=C/c1ccc(NS(=O)(=O)c2ccc(Cl)cc2Cl)cc1)NO` came in with a 50% inhibitory concentration (IC50) of 300 nM and a pIC50 of 6.52.

`O=C(/C=C/c1ccc(NS(=O)(=O)c2ccc(Cl)c(Cl)c2)cc1)NO`: the concentration for half-maximal inhibition (IC50) was determined as 100 nM and the pIC50 is given as 7. `O=C(CCc1ccc(NS(=O)(=O)c2ccccc2)cc1)NO` yielded an IC50 of 100 nM and a pIC50 of 7. `O=C(CCCCCCC(=O)c1cccnc1)NO` showed a pIC50 of 6.82.

As for `O=C(CCCCCCC(=O)c1ccc(N2CCN(c3ccccc3)CC2)cc1)NO`, the pIC50 came to 8.35.
